According to ChEMBL document CHEMBL2331419, “Benzimidazole-carboxamides as potent and bioavailable stearoyl-CoA desaturase (SCD1) inhibitors from ligand-based virtual screening and chemical optimization” (Bioorg Med Chem Lett, 2013):
pIC50: −log10 of the molar value. One block for each compound: values may come before it.

What was measured:
Acyl-CoA desaturase 1 [1] = target: T1, Acyl-CoA desaturase 1 (Rattus norvegicus, UniProt P07308); test: Inhibition of SCD1 in Wistar rat liver microsomes using [14C] stearic acid as substrate incubated for 10 mins prior to substrate addition measured after 1 hr by chromatographic analysis; parameters: species or system Microsome
T1 sequence (P07308 whole entry): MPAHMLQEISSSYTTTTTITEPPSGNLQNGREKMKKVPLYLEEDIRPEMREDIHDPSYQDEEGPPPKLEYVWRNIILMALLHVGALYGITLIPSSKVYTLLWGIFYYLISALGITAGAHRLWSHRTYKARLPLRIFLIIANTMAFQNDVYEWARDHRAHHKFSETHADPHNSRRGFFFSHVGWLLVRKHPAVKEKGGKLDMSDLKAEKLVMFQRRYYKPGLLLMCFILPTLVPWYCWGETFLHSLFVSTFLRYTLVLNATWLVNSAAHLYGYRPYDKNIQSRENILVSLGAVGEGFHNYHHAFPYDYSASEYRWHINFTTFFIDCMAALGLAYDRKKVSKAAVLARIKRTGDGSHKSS

Acyl-CoA desaturase 1 [2] = target: T1, Acyl-CoA desaturase 1; test: Inhibition of SCD1 in rat H42E cells; assay type: cell-based
Stearoyl-CoA desaturase = target: T2, Stearoyl-CoA desaturase (Homo sapiens, UniProt O00767); test: Inhibition of SCD1 in human HepG2 cells; assay type: cell-based
T2 sequence (O00767 whole entry): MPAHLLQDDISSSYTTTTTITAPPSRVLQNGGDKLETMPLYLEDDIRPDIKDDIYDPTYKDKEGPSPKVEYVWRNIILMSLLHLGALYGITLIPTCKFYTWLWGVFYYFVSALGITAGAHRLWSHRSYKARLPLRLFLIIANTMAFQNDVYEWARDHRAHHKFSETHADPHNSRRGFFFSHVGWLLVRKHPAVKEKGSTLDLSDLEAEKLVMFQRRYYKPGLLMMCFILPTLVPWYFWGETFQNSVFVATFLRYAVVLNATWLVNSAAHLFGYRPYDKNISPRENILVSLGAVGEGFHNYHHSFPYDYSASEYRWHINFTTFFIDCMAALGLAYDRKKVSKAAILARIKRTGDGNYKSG

[3] = Lipophilicity, log D of the compound at pH 7.4; assay type: physicochemical; details: buffer
[4] = Drug metabolism in human in presence of quinidine; assay type: ADME, organism-based; details: in vivo, with quinidine, read-out: Drug metabolism
[5] = Drug metabolism in human in presence of ketoconazole; assay type: ADME, organism-based; details: in vivo, with ketoconazole, read-out: Drug metabolism
[6] = Drug metabolism in mouse; assay type: ADME, organism-based; details: in vivo, read-out: Drug metabolism
[7] = Drug metabolism in human; assay type: ADME, organism-based; details: in vivo, read-out: Drug metabolism
[8] = Drug metabolism in rat; assay type: ADME, organism-based; details: in vivo, read-out: Drug metabolism
[9] = Permeability across human Caco2 cells; assay type: ADME, cell-based; details: Caco-2, read-out: permeability
Rattus norvegicus [10] = test: In vivo inhibition of SCD1 in Zucker diabetic fatty rat assessed as decrease in serum fatty acid desaturation index at 30 mg/kg, po after 6 hrs relative to vehicle-treated control; assay type: functional
[11] = Oral bioavailability in Zucker diabetic fatty rat at 30 mg/kg; assay type: ADME, organism-based; details: in vivo
[12] = Apparent half life in Zucker diabetic fatty rat at 30 mg/kg, po; assay type: ADME, organism-based; parameters: dose 30 mg/kg, route oral; details: in vivo, read-out: t1/2(app) (converted)
[13] = Cmax in Zucker diabetic fatty rat at 30 mg/kg, po after 4 hrs; assay type: ADME, organism-based; parameters: dose 30 mg/kg, route oral; details: in vivo
Rattus norvegicus [14] = test: Volume of distribution at steady state in Zucker diabetic fatty rat at 5 mg/kg, iv; assay type: ADME, organism-based; parameters: dose 5 mg/kg, route intravenous; details: in vivo
[15] = Half life in Zucker diabetic fatty rat at 5 mg/kg, iv; assay type: ADME, organism-based; parameters: dose 5 mg/kg, route intravenous; details: in vivo
[16] = Plasma clearance in Zucker diabetic fatty rat at 5 mg/kg, iv; assay type: ADME, organism-based; parameters: dose 5 mg/kg, route intravenous
HepG2 = test: Inhibition of ACC phosphorylation in human HepG2 cells at 10 uM by Western blotting analysis relative to control; assay type: cell-based

SMILES: O=C(CCc1ccccc1)Nc1ccc(N2CCN(C(=O)c3ccccc3C(F)(F)F)CC2)nc1
- pIC50 (Acyl-CoA desaturase 1 [1]): 5.65

SMILES: CC(C)CCNC(=O)c1ccc2[nH]c(-c3ccc(Oc4ccccc4Cl)cc3)nc2c1
- pIC50 (Acyl-CoA desaturase 1 [1]): 5.57

SMILES: CCn1c(COCc2ccccc2)nc2cc(C(=O)NCCc3ccc(O)cc3)ccc21
- pIC50 (Acyl-CoA desaturase 1 [1]): 5.30

SMILES: CNC(=O)c1ccc2nc(-c3ccc(Oc4ccccc4C(F)(F)F)cc3)[nH]c2c1
- pIC50 (Acyl-CoA desaturase 1 [1]): 4.57

SMILES: O=C(NCC1CC1)c1ccc2[nH]c(-c3ccc(Oc4ccccc4)cc3)nc2c1
- pIC50 (Acyl-CoA desaturase 1 [1]): 4.78

SMILES: CCOC(=O)c1ccc2[nH]c(-c3ccc(Oc4ccccc4C(F)(F)F)cc3)nc2c1
- pIC50 (Acyl-CoA desaturase 1 [1]): 4.42

SMILES: CC(C)CCNC(=O)c1ccc2nc(-c3ccc(Oc4ccccc4)cc3)[nH]c2c1
- pIC50 (Acyl-CoA desaturase 1 [1]): 4.67

SMILES: O=C(NCc1ccccc1)c1ccc2nc(-c3ccc(Oc4ccccc4)cc3)[nH]c2c1
- pIC50 (Acyl-CoA desaturase 1 [1]): 5.11

SMILES: O=C(NCc1cccc(C(F)(F)F)c1)c1ccc2[nH]c(-c3ccc(Oc4ccccc4)cc3)nc2c1
- pIC50 (Acyl-CoA desaturase 1 [1]): 4.93

SMILES: O=C(NCCC1CC1)c1ccc2nc(-c3ccc(Oc4ccccc4)cc3)[nH]c2c1
- pIC50 (Acyl-CoA desaturase 1 [1]): 4.60

SMILES: O=C(NCc1nccs1)c1ccc2nc(-c3ccc(Oc4ccccc4)cc3)[nH]c2c1
- pIC50 (Acyl-CoA desaturase 1 [1]): 5.19

SMILES: O=C(c1ccccc1)c1ccc2nc(-c3ccc(Oc4ccccc4)cc3)[nH]c2c1
- pIC50 (Acyl-CoA desaturase 1 [1]): 4.80

SMILES: O=C(NCc1cccs1)c1ccc2nc(-c3ccc(Oc4ccccc4)cc3)[nH]c2c1
- logD [3]: 3.68
- pIC50 (Acyl-CoA desaturase 1 [1]): 5.42

SMILES: O=C(NCc1ccc(Cl)s1)c1ccc2[nH]c(-c3ccc(Oc4ccccc4)cc3)nc2c1
- pIC50 (Acyl-CoA desaturase 1 [1]): 5.43

SMILES: O=C(NCCC1CC1)c1ccc2[nH]c(-c3ccc(Oc4ccccc4Cl)cc3)nc2c1
- inhibition (HepG2): 140%

SMILES: O=C(Cc1cccs1)Nc1ccc2nc(N3CCN(C(=O)c4ccccc4C(F)(F)F)CC3)[nH]c2c1
- pIC50 (Acyl-CoA desaturase 1 [1]): 5.49

SMILES: O=C(Nc1nccs1)c1ccc2nc(-c3ccc(C(=O)c4ccccc4C(F)(F)F)cc3)[nH]c2c1
- pIC50 (Acyl-CoA desaturase 1 [1]): 5.34

SMILES: O=C(NCCCc1ccccc1)c1ccc2nc(-c3ccc(Oc4ccccc4)cc3)[nH]c2c1
- pIC50 (Acyl-CoA desaturase 1 [1]): 4.55

SMILES: O=C(c1ccc2nc(-c3ccc(OCc4ccccc4)cc3)[nH]c2c1)c1ccccc1C(F)(F)F
- pIC50 (Acyl-CoA desaturase 1 [1]): 4.88

SMILES: O=C(NCCCc1ccccc1)c1ccc2nc(-c3ccc(Oc4ccccc4C(F)(F)F)cc3)[nH]c2c1
- pIC50 (Acyl-CoA desaturase 1 [1]): < 4.00

SMILES: O=C(c1ccccc1)c1ccc2nc(-c3ccc(-c4ccccc4)cc3)[nH]c2c1
- pIC50 (Acyl-CoA desaturase 1 [1]): < 4.00

SMILES: O=C(c1ccccc1)c1ccc2nc(-c3ccc(C(=O)c4ccccc4C(F)(F)F)cc3)[nH]c2c1
- pIC50 (Acyl-CoA desaturase 1 [1]): < 4.00

SMILES: CC(C)CCNC(=O)c1ccc2nc(-c3ccc(C(=O)c4ccccc4C(F)(F)F)cc3)[nH]c2c1
- pIC50 (Acyl-CoA desaturase 1 [1]): 5.41

The remaining compounds from weak to strong by pIC50 (Acyl-CoA desaturase 1 [1]), led by results:

- pIC50 (Acyl-CoA desaturase 1 [1]): 5.66
SMILES: O=C(NCc1ccc(Cl)s1)c1cccc(-c2nc3cc(Oc4ccccc4C(F)(F)F)ccc3[nH]2)c1

- pIC50 (Acyl-CoA desaturase 1 [1]): 5.89
SMILES: O=C(NCc1nccs1)c1cccc(-c2nc3cc(Oc4ccccc4C(F)(F)F)ccc3[nH]2)c1

- pIC50 (Stearoyl-CoA desaturase): 5.63
- metabolised [4]: 58%
- metabolised [5]: 45%
- metabolised [6]: 49%
- metabolised [7]: 62%
- metabolised [8]: 38%
- Papp [9]: 16.7 ×10⁻⁶ cm/s
- pIC50 (Acyl-CoA desaturase 1 [1]): 6.02
SMILES: O=C(NCCC1CC1)c1ccc2nc(-c3ccc(Oc4ccccc4Cl)cc3)[nH]c2c1

- pIC50 (Stearoyl-CoA desaturase): 5.87
- metabolised [4]: 62%
- metabolised [5]: 41%
- metabolised [6]: 36%
- metabolised [7]: 64%
- metabolised [8]: 31%
- Papp [9]: 11.4 ×10⁻⁶ cm/s
- pIC50 (Acyl-CoA desaturase 1 [1]): 6.08
SMILES: O=C(NCc1ccc(Cl)s1)c1ccc2nc(-c3ccc(Oc4ccccc4Cl)cc3)[nH]c2c1

- pIC50 (Acyl-CoA desaturase 1 [1]): 6.27
SMILES: O=C(NCCC1CC1)c1ccc2nc(-c3ccc(Oc4ccccc4C(F)(F)F)cc3)[nH]c2c1

- pIC50 (Acyl-CoA desaturase 1 [1]): 6.36
SMILES: CC(C)CCNC(=O)c1ccc2nc(-c3ccc(Oc4ccccc4C(F)(F)F)cc3)[nH]c2c1

- pIC50 (Stearoyl-CoA desaturase): 6.50
- pIC50 (Acyl-CoA desaturase 1 [1]): 6.67
SMILES: O=C(NCc1nccs1)c1ccc2[nH]c(-c3ccc(Oc4ccccc4C(F)(F)F)cc3)nc2c1

- pIC50 (Stearoyl-CoA desaturase): 6.36
- pIC50 (Acyl-CoA desaturase 1 [1]): 6.85
SMILES: O=C(NCc1ccc(Cl)s1)c1ccc2nc(-c3ccc(Oc4ccccc4C(F)(F)F)cc3)[nH]c2c1

- bioavailability [11]: 25%
- half-life [12]: 8.4 h
- Cmax [13]: 1950 ng/mL
- Vdss (Rattus norvegicus [14]): 1.7 L/kg
- half-life [15]: 6.5 h
- pIC50 (Acyl-CoA desaturase 1 [2]): 6.74
- pIC50 (Stearoyl-CoA desaturase): 6.80
- logD [3]: 3.94
- metabolised [4]: 40%
- metabolised [5]: 10%
- metabolised [7]: 45%
- metabolised [8]: 40%
- Papp [9]: 5.26 ×10⁻⁶ cm/s
- clearance [16]: 4.17 mL/min/kg
- pIC50 (Acyl-CoA desaturase 1 [1]): 6.87
SMILES: O=C(NCc1ccc(Cl)s1)c1ccc2[nH]c(-c3ccc(C(=O)c4ccccc4C(F)(F)F)cc3)nc2c1
- inhibition in vivo at 30 mg/kg (Rattus norvegicus [10]): 84.4%

- pIC50 (Acyl-CoA desaturase 1 [2]): 6.52
- pIC50 (Stearoyl-CoA desaturase): 5.94
- logD [3]: 2.24
- metabolised [4]: 40%
- metabolised [5]: 16%
- metabolised [6]: 23%
- metabolised [7]: 45%
- metabolised [8]: 38%
- Papp [9]: 6.36 ×10⁻⁶ cm/s
- pIC50 (Acyl-CoA desaturase 1 [1]): 6.94
SMILES: O=C(NCc1nccs1)c1ccc2nc(-c3ccc(Oc4ccccc4Cl)cc3)[nH]c2c1

- pIC50 (Acyl-CoA desaturase 1 [1]): 7.00
SMILES: O=C(NCc1cccs1)c1ccc2nc(-c3ccc(C(=O)c4ccccc4C(F)(F)F)cc3)[nH]c2c1

- pIC50 (Acyl-CoA desaturase 1 [2]): 7.85
- pIC50 (Stearoyl-CoA desaturase): 6.53
- metabolised [4]: 60%
- metabolised [5]: 46%
- metabolised [7]: 71%
- metabolised [8]: 20%
- Papp [9]: 18.2 ×10⁻⁶ cm/s
- pIC50 (Acyl-CoA desaturase 1 [1]): 7.09
SMILES: OC(c1ccc2[nH]c(-c3ccc(OCc4ccccc4)cc3)nc2c1)c1ccccc1C(F)(F)F (racemic)

- pIC50 (Acyl-CoA desaturase 1 [2]): 6.98
- pIC50 (Stearoyl-CoA desaturase): 6.75
- pIC50 (Acyl-CoA desaturase 1 [1]): 7.11
SMILES: O=C(NCc1nccs1)c1ccc2[nH]c(-c3ccc(C(=O)c4ccccc4C(F)(F)F)cc3)nc2c1
